Among the data in patent US20170217946A1, “AMINO-SUBSTITUTED ISOXAZOLES” (Bayer Pharma Aktiengesellschaft, priority 2014, published 2017) are IC50 values, retold here.

The structures appear in SMILES notation.

The subject of this test is spindle assembly checkpoint (phosphorylated histone H3 on serine 10) in HeLa cells. Put plainly: SAC-Formation - Nocodazole-Induced Assay. The format is cell-based. The following applies: Homo sapiens, nocodazole 0.1 μg/ml, 24 h incubation. From the text:
The spindle assembly checkpoint assures the proper segregation of chromosomes during mitosis. Upon entry into mitosis, chromosomes begin to condensate which is accompanied by the phosphorylation of histone H3 on serine 10. Dephosphorylation of histone H3 on serine 10 begins in anaphase and ends at early telophase. Accordingly, phosphorylation of histone H3 on serine 10 can be utilized as a marker of cells in mitosis. Nocodazole is a microtubule destabilizing substance. Paclitaxel is a microtubule stabilizing compound. Thus, nocodazole as well as paclitaxel interfere with microtubule dynamics and mobilize the spindle assembly checkpoint. […] The mitotic breakthrough can be detected by the decrease of cells with phosphorylation of histone H3 on serine 10. This decline is used as a marker to determine the capability of compounds of the present invention to induce a mitotic breakthrough. The typical morphological alteration of nuclei with a prematurely completed mitosis after SAC-inhibition can be monitored via image analysis routines supporting those findings.
The nocodazole and paclitaxel variations were used to focus on compounds that are capable of inhibiting a SAC induced by both microtubule destabilization as well as microtubule stabilization. […]
Cultivated cells of the human cervical tumor cell line HeLa (ATCC CCL-2) were plated at a density of 1000 cells/well in a 1536-well microtiter plate in 2 μl PAA Ham's F12 Medium supplemented with 1% (v/v) glutamine, 1% (v/v) penicillin, 1% (v/v) streptomycin and 10% (v/v) fetal calf serum. […] Images were acquired with a PERKIN ELMER OPERA™ High-Content Analysis reader. Images were analyzed with image analysis software MetaXpress™ from Molecular devices utilizing the Mitotic Index application module. In this assay both labels HOECHST 33342 and phosphorylated Histone H3 on serine 10 were measured. […] The raw assay data were further analyzed by four-parametric hill equation using Genedata's Assay Analyzer and Condoseo software.
For the molecule `Cc1noc(Nc2cnc(C(F)(F)F)cn2)c1C(=O)Nc1ccc(F)c(F)c1` [Example 1c, N-(3,4-Difluorophenyl)-3-methyl-5-{[5-(trifluoromethyl)pyrazin-2-yl]amino}-1,2-oxazole-4-carboxamide], the IC50 stood at 0.17 µM. With `Cc1noc(Nc2cnc(C(F)(F)F)cn2)c1C(=O)Nc1ccc(OC2CCN(CCC(F)(F)F)CC2)nc1` [Example 1a, 3-Methyl-5-{[5-(trifluoromethyl)pyrazin-2-yl]amino}-N-(6-{[1-(3,3,3-trifluoropropyl)-piperidin-4-yl]oxy}pyridin-3-yl)-1,2-oxazole-4-carboxamide], the IC50 was 0.43 µM.

Consider `Cc1noc(Nc2cnc(C(=O)NC3CCN(CC(F)F)CC3)cn2)c1C(=O)Nc1ccc(F)c(F)c1` [Example 1b, N-[1-(2,2-Difluoroethyl)piperidin-4-yl]-5-({4-[(3,4-difluorophenyl)carbamoyl]-3-methyl-1,2-oxazol-5-yl}amino)pyrazine-2-carboxamide], for which the IC50 was determined as 0.62 µM.
